# US9963703B2, “Compositions and methods for treating pancreatic cancer” (Autotelic LLC, priority 2016, dated 2018)
# In the oligonucleotide strings, read from the 5' end, every base follows the letter of its sugar. An asterisk marks phosphorothioate; unmarked linkages are phosphodiester. Other units and linkages are bracketed, terminal groups are in braces. A string of capitals states the bases alone. d = 2'-deoxy (DNA)
# Key:
# [1] = Preclinical toxicology, LOAEL in Cynomolgus monkeys; assay type: in vivo
# Description: (§1) The clinical starting dose for the 7-days-on and 7-days-off schedule was based on the Lowest-Observed-Adverse-Effect-Level (LOAEL) devoid of severe toxicity in Cynomolgus monkeys as the most relevant species. This LOAEL of 4 mg/kg body weight (b.w.)/day is equivalent to approximately 1.3 mg/kg b.w./day or 48 mg/m^2/day on a body surface area basis in human adults. These numbers were rounded down and the safe starting dose was defined at 40 mg/m^2/day, equivalent to approximately 1 mg/kg b.w./day in humans. An alternative approach would have been based on the lowest lethal dose (LLD) of 300 mg/kg b.w. obtained in the acute single dose toxicity study in mice (in rats it was determined at 1000 mg/kg), at which 1 of 10 mice died (LLD10). According to the standard method, 10% of this dose (30 mg/kg) on a body surface area basis would then be defined as the clinical starting dose resulting in 90 mg/m^2/day. In the end, the lower of the two alternatives was chosen as starting dose.
# TGFβ2 [2] = test: TGFβ2 secretion/expression in HUP-T3 pancreatic cancer cells; assay type: cell-based
# From the text: (§2) The aim of the study was to determine the effect of AP12009 (trabedersen) treatment in combination with 5-Fluorouracil (5-FU) on TGFβ2 secretion and on cellular proliferation of HUP-T3 pancreatic cancer cells and WiDr colon cancer cells in vitro.
# TGFβ2 [3] = test: TGFβ2 secretion in A-172 glioma cells; assay type: cell-based
# Description: (§3) A-172 glioma cells were treated with a combination of AP12009 (trabedersen) 0 to 10 μM) and different concentrations of TMZ (temozolomide) for 7 days (treatment schedule 2*2/1*3 d).
# (§4) In summary there is no clear beneficial effect in combining AP12009 with TMZ in A-172 cells.
# WiDr colon cancer cells = test: Cellular proliferation of WiDr colon cancer cells in vitro; assay type: cell-based
# From the text: as §2
# [4] = tested on: HUP-T3 pancreatic cancer cells; test: Cellular proliferation of HUP-T3 pancreatic cancer cells in vitro
# From the text: as §2
# A-172 glioma cells [5] = test: A-172 glioma cells, alternative AP12009/TMZ treatment schedules (readout not stated); assay type: cell-based
# Description: as §3
# TGFβ2 [6] = test: TGFβ2 secretion/expression in WiDr colon cancer cells; assay type: cell-based
# From the text: as §2
# A-172 glioma cells [7] = test: Migration of A-172 glioma cells; assay type: cell-based
# Description: as §3
# pancreatic cancer = test: Phase I/II study P-001, efficacy (PFS, OS) in pancreatic cancer patients; assay type: in vivo, human
# Description: At screening, up to 10 “measurable lesions” (i.e. lesions that could be accurately measured in at least 1 dimension with a longest diameter of 2 cm) representative of all involved organs were identified as “target lesions” for tumor response assessment and were measured and documented. All other lesions were defined and recorded as “non-target lesions”. Tumor response was determined by the local investigator every 8 weeks after start of the first trabedersen cycle during follow-up visits, irrespective of whether the patient was still on treatment or off treatment. The tumor assessment was based on Response Evaluation Criteria in Solid Tumors (RECIST 1.0) criteria. The categories of overall tumor response are as follows: (1) Complete response (CR): disappearance of all target and non-target lesions and normalization of tumor marker level; (2) Partial response (PR): at least 30% decrease in the sum of the longest diameter (LD) of target lesions (baseline sum LD as reference) and/or persistence of one or more non-target lesions and/or maintenance of tumor marker level above normal limits; (3) Stable disease (SD): less than 30% decrease or less than 20% increase in sum LD target lesions (smallest sum LD since treatment start as reference) and/or persistence of one or more non-target lesions and/or maintenance of tumor marker level above normal limits; (4) Progressive disease (PD) At least 20% increase in sum LD target lesions (smallest sum LD since treatment start as reference) and/or unequivocal progression of existing nontarget lesions and/or appearance of one or more new lesions; and (5) Unknown.
# Progression-free survival (PFS) was defined as the time from Day 1 until tumor progression or death from any cause. The date of progression was either the date of the image showing progression or the date of treatment termination in case one of the reasons for treatment termination was tumor progression (referring to clinical progression as assessed by the Investigator), whichever occurred first.
# Overall survival (OS) was defined as the time from Day 1 until death from any cause. All patients were followed for survival during the follow-up assessments every 8 weeks. The survival status was documented at the Final Visit (Day 29) and during the 8-weekly post-treatment follow-up assessments, and was continued to be collected after study closure until database lock or until the patient was lost to follow-up.
# There were […] line patients and 11 third line and beyond on the 4 days on and 10 days off regimen. The PFS/OS (progression free survival/overall survival ratio) of these second line patients in months were: 1.87/5.60 (N=6), 1.87/9.93 (N=11) and 2.72/11.80 (N=5) at increasing mean dose of 140 mg/m^2/day, 167 mg/m^2/day, and 196 mg/m^2/day, respectively. The OS of 9.93 and 11.80 are higher than the highest reported in the 65 trials reported in the literature during 1997-2015 (range=2.50-9.20/median=5.50). The corresponding PFS values were in line with reported literature (range=0.00-7.65/median=2.43). […] Trabedersen itself was not having an impact on the tumor (FIG. 1).
# A-172 glioma cells [8] = test: Proliferation of A-172 glioma cells; assay type: cell-based
# Description: as §3, §4
# [9] = Acute single dose toxicity in rats; assay type: in vivo
# Description: as §1
# [10] = converted from Cynomolgus LOAEL
# [11] = AP12009 in combination with TMZ
# [12] = FIG. 1, trabedersen as second line treatment
# [13] = second line pancreatic cancer patients, 4 days on/10 days off, mean dose 140 mg/m^2/day (N=6)
# [14] = second line pancreatic cancer patients, 4 days on/10 days off, mean dose 167 mg/m^2/day (N=11)
# [15] = second line pancreatic cancer patients, 4 days on/10 days off, mean dose 196 mg/m^2/day (N=5)
substance,measurement,setting,value
trabedersen: TGF-beta2 specific phosphorothioate antisense oligodeoxynucleotide with the sequence 5′-CGGCATGTCTATTTTGTA-3′ (SEQ ID No: 1) (antisense dC*dG*dG*dC*dA*dT*dG*dT*dC*dT*dA*dT*dT*dT*dT*dG*dT*dA),Lowest-Observed-Adverse-Effect-Level (LOAEL) devoid of severe toxicity,[1]; Cynomolgus monkeys,4 mg/kg body weight (b.w.)/day
same,"LOAEL, equivalent in human adults",[1]; [10],approximately 1.3 mg/kg b.w./day
same,"LOAEL, equivalent in human adults on a body surface area basis",[1]; [10],~48 mg/m^2/day
same,"TGFβ2 expression, % of untreated control",TGFβ2 [2]; 10 μM AP12009 monotherapy,42%
same,combination effect on inhibition of TGFβ2 expression,TGFβ2 [2]; 5-FU added to 10 μM AP12009,sub-additive or even antagonistic effects
same,combination effect on inhibition of TGFβ2 secretion,TGFβ2 [3]; [11],additive effect
same,effect on TGFβ2,"TGFβ2 [3]; monotherapy, 7 days",strongly reduced
same,"cell proliferation, % of untreated control",WiDr colon cancer cells; 10 μM AP12009,76%
same,combination effect on cell proliferation,WiDr colon cancer cells; 10 μM AP12009 and 5-FU,sub-additive effects
same,effect on proliferation of adding AP12009 to 5-FU compared with 5-FU alone,[4],did not result in any additional inhibition of proliferation
same,"cell proliferation, % of untreated control","[4]; HUP-T3, 10 μM AP12009 monotherapy",53%
same,benefit of single TMZ treatment combined with 7 day AP12009 treatment,"A-172 glioma cells [5]; TMZ day 0 for one day, AP12009 7 days (2*1/1*2/1*3 d)",did not show any benefit or disadvantage
same,benefit of pre-treatment with AP12009,A-172 glioma cells [5]; pre-treatment (1*2/1*3 d) with AP12009 before combined AP12009 and TMZ (2*2/1*3 d),did not show any benefit
same,"TGFβ2 expression, % of untreated control",TGFβ2 [6]; 10 μM AP12009,54%
same,combination effect on TGFβ2 expression,TGFβ2 [6]; 10 μM AP12009 and 5-FU,sub-additive effects
same,effect on migration compared with untreated control,A-172 glioma cells [7]; AP12009 10 μM monotherapy,did not affect migration
same,effect of AP12009 on TMZ effect on migration,A-172 glioma cells [7]; [11],did not influence the effects of TMZ on migration
same,OS,"pancreatic cancer; 4/10 cohort treated with subsequent chemotherapies, p=0.0023, Log-rank",14.7 mos
same,OS,pancreatic cancer; 4/10 cohort without subsequent chemotherapies,2.93 mos
same,OS compared to reported median OS,pancreatic cancer; [12],higher than reported in the literature
same,PFS compared to reported median PFS,pancreatic cancer; [12],not significantly different
same,"effect on the tumor, as indicated by overall survival rate","pancreatic cancer; FIG. 3, trabedersen alone",does not have a significant effect on the tumor
same,effect on overall survival rate,"pancreatic cancer; FIG. 3, trabedersen therapy followed by chemotherapy",significant increase in the overall survival rate
same,OS,"pancreatic cancer; chemotherapy on 2nd line followed by trabedersen 4/10 regimen as third line (N=9), p=0.046 vs trabedersen first",2.80 mos
same,OS,pancreatic cancer; [13],5.60 months
same,PFS,pancreatic cancer; [13],1.87 months
same,OS,pancreatic cancer; [14],9.93 months
same,PFS,pancreatic cancer; [14],1.87 months
same,OS,pancreatic cancer; [15],11.80 months
same,PFS,pancreatic cancer; [15],2.72 months
same,OS,"pancreatic cancer; trabedersen on 2nd line followed with subsequent therapies (N=11), p=0.046, Log-rank",9.93 mos
same,combination effect on cell proliferation,A-172 glioma cells [8]; [11],no reproducible beneficial effect
same,effect on cell proliferation,"A-172 glioma cells [8]; monotherapy, 7 days",slightly reduced
same,lowest lethal dose (LLD),[9],1000 mg/kg
